Assay results: US12583834B2, “Method of treating bacterial infections and pharmaceutical composition for treating bacterial infections” (Institut National de Recherche pour l'Agriculture, …, priority 2020, dated 2026)
“Also recorded” adds a separate entry of the source.

Assays:
[1] = tested on: Bacillus cereus (Bc 407); assay: Survival of silkworm larvae infected with B. cereus; format: in vivo; conditions: Bombyx mori larvae, B. cereus 1×10^2 CFU, 0.3 to 5.5 μg/g injected with the bacteria, 24 h at 27° C.; FIG. 6
[2] = tested on: Bombyx mori larvae; assay: Toxicity towards silkworm larvae; format: in vivo; conditions: 0.3 to 5.5 μg/g injected
[3] = tested on: K. pneumoniae (CIP700603); assay: Antimicrobial activity during nitric oxide stress, K. pneumoniae; format: cell-based, Klebsiella pneumoniae; conditions: 4 h at 37° C. under nitric oxide stress, 10 to 200 μM, FIG. 4
Procedure: (§1) The power of compound (Ia) to inhibit bacterial growth, specifically in the presence of in vitro-produced nitric oxide, is measured for different bacterial species: Bacillus cereus and two antibiotherapy challenging bacteria, regarding medical interest and therapeutic needs, namely Klebsiella pneumoniae and Acinetobacter baumannii.
(§2) Gram-positive B. cereus (Bc 407) and Gram-negative K. pneumoniae (CIP700603) and A. baumannii (CIP7034) strains were grown to exponential phase in Luria-Bertani (LB) medium. Bacteria solution were prepared in Roswell Park Memorial Institute (RPMI) medium and 150 μL were dispatched into 96-wells plate. To measure effect of compound (Ia), bacteria were exposed to 50 μL of NO at a concentration that induces a survival below 90% compared to the condition without NO, in absence (0 μM) or presence (at a dose ranging from 10 to 200 μM) of compound (Ia).
(§3) Bacteria survival rate was quantified after 4 h at 37° C. by normalizing bacterial load in (Ia)-treated samples against that in DMSO-treated samples (0 μM of (Ia)).
(§4) The results obtained are shown in FIG. 3 for B. cereus, in FIG. 4 for K. pneumoniae and in FIG. 5 for A. baumanii. In these bar graphs the data represent the mean of duplicate experiment of N=3/12+/−SEM. Two-tailed t-student tests are employed to investigate statistical differences, using GraphPad Prism.

[4] = tested on: B. cereus (Bc 407); assay: Antimicrobial activity during nitric oxide stress, B. cereus; format: cell-based, Bacillus cereus; conditions: 4 h at 37° C. under nitric oxide stress, 10 to 200 μM, FIG. 3
Procedure: as §1, §2, §3, §4

[5] = tested on: A. baumannii (CIP7034); assay: Antimicrobial activity during nitric oxide stress, A. baumannii; format: cell-based, Acinetobacter baumannii; conditions: A. baumanii, 4 h at 37° C. under nitric oxide stress, 10 to 200 μM; FIG. 5
Procedure: as §1, §2, §3, §4

[6] = biological target: Mfd from E. coli (Escherichia coli, UniProt P30958); assay: Inhibition of Mfd ATPase activity in vitro (BIOMOL Green phosphate release); format: biochemical; conditions: for relative inhibition of E. coli Mfd ATPase activity with respect to the vehicle (DMSO): 100 μM compound, ATP 0.035 mM and 0.070 mM, FIG. 1
Procedure: Mfd enzyme activity was evaluated by measuring the quantity of inorganic phosphate (PO4i) released using BIOMOL® Green reagent microtiter-plate assay (Enzo Life Sciences). Mfd from E. coli (0.35 μM) was incubated with DMSO or with the tested compounds at a concentration of 100 μM in DMSO, for 10 min at 37° C. ATPase reaction was measured in Tris pH8 0.05M; NaCl 0.3M; DTT 0.002M; MgCl2 0.0025M; DMSO 2%; containing ATP (at different concentrations between 0.0022 and 0.279 mM) for 30 min at 37° C. 50 μL of each reaction medium was transferred into clear, flat-bottom 96-well plates and the reaction was terminated by the addition of 100 μl of BIOMOL® Green reagent. The absorbance at 620 nm was measured in a microplate reader (Tecan). The absorbance values were then transformed into nmols of PO4i released based on a PO4i standard curve prepared as recommended by the supplier.
The potency of each compound is calculated relative to the vehicle DMSO control. Each point is the mean of duplicate experiments of N=2+/−SEM (Standard error of the Mean).
Mfd ATPase activity at ATP concentrations ranging from 0 to 0.279 mM was measured in the same conditions as described above, without and with presence of various doses of compound (Ia): 0 μM, 3 μM, 10 μM, 30 μM, 65 μM and 100 μM. Curves were fit to the Michaelis-Menten equation with the GraphPad PRISM software. Results are the mean of duplicate experiment of N=3-10+/−SEM.

[7] = tested on: B. cereus (Bc 407); assay: Mouse systemic infection model, B. cereus bacterial load in organs; format: in vivo, C57BL/6JRj mice; conditions: mice, B. cereus 4×10^6 CFU i.p., 12 mg/kg i.p., 6 h after infection; lung, liver and spleen; FIG. 8
Procedure: The efficiency of the compound of the invention (Ia) against a bacterial pathogen was assessed in a mouse model of infection (systemic infection model). Eight weeks old female C57BL/6JRj (Janvier Labs) mice were infected with B. cereus (Bc 407) (4×10^6 CFU) by intraperitoneal injection (100 μL). 100 μl of compound of the invention (Ia) in DMSO at a dose of 12 mg/kg, or of the vehicle alone (DMSO), were further injected to the mice by intraperitoneal injection. 6 h after the infection mice were sacrificed by cervical dislocation. Mice organs were collected and homogenized in cold Phosphate Buffered Saline (PBS). Bacteria burdens in organs were determined by plating serially dilution of the homogenate on LB agar media. The results obtained are shown on FIG. 8 in a/ for the lung, in b/ for the liver and in c/ for the spleen. In these figures, the data are represented as mean+/−SEM from 3 different experiments with 6-8 mice per group. Each point represents one animal.

[8] = tested on: Pseudomonas aeruginosa (CIP27853); assay: Survival of silkworm larvae infected with P. aeruginosa; format: in vivo; conditions: Bombyx mori larvae, P. aeruginosa 1×10^4 CFU, 0.3 to 5.5 μg/g injected with the bacteria, 24 h at 27° C.; effect at higher doses; FIG. 7

Chain of Mfd from E. coli (P30958 whole entry): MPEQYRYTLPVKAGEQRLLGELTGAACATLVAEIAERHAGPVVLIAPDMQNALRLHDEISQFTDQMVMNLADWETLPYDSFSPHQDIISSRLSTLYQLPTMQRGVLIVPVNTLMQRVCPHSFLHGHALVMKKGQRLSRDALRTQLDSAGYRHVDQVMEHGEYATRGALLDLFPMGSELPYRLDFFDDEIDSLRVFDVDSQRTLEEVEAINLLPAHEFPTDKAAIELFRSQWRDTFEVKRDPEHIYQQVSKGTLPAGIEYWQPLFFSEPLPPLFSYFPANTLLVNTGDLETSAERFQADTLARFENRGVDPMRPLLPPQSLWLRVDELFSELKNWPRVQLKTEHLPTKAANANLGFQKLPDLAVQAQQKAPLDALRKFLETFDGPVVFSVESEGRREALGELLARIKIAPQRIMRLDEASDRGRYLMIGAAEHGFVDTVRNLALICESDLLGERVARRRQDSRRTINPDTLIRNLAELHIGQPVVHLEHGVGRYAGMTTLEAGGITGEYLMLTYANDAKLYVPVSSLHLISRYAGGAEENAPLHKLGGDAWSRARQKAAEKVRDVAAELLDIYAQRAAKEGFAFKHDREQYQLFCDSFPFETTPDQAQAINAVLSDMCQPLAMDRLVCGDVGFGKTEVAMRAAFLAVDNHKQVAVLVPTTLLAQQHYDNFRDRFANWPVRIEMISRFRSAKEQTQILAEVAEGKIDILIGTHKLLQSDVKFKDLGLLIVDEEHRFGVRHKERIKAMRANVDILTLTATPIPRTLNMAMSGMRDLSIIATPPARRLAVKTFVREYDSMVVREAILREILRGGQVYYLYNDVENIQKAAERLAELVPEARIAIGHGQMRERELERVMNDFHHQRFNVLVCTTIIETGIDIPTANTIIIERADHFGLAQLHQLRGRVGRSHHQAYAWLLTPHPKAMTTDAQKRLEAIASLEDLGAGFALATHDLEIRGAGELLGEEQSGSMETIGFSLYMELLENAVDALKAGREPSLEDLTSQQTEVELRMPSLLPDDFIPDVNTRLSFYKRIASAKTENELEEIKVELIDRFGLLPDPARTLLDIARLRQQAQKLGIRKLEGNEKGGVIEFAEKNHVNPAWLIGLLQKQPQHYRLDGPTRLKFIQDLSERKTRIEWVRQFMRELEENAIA

| Structure (SMILES) | survival of infected larvae (protective effect) [1] | toxicity towards the insects [2] | bacteria survival / resistance to NO in vitro [3] | bacteria survival / resistance to NO in vitro [4] | bacteria survival / resistance to NO in vitro [5] | mode of inhibition of Mfd ATPase activity ([6]; 0-100 μM (Ia), ATP 0 to 0.279 mM, Michaelis-Menten fit, FIG. 2) | relative inhibition of E. coli Mfd ATPase activity with respect to the vehicle (DMSO) [6] | bacterial load in organs [7] | survival of infected larvae (protective effect) [8] |
| --- | --- | --- | --- | --- | --- | --- | --- | --- | --- |
| CN(C)S(=O)(=O)c1ccc(S(=O)(=O)N2CCC(n3c(=O)[nH]c4ccccc43)CC2)cc1 [compound (Ia), N,N-dimethyl-4-{[4-(2-oxo-2,3-dihydro-1H-1,3-benzodiazol-1-yl)piperidin-1-yl]sulfonyl}benzene-1-sulfonamide] | significant protective effect | no toxicity towards the insects | reduces bacteria resistance to NO in vitro | reduces bacteria resistance to NO in vitro | reduces bacteria resistance to NO in vitro | competitive inhibitor of Mfd ATPase activity | much higher capacity of inhibition of the Mfd ATPase activity than the comparative compounds; also recorded: more efficient than compound (Ib) | decreases the bacterial load in all these organs | significant protective effect |
| O=c1[nH]c2ccccc2n1C1CCN(c2ccc(S(=O)(=O)N3CCCCC3)cn2)CC1 [compound (Ib)] |  |  |  |  |  |  | much higher capacity of inhibition of the Mfd ATPase activity than the comparative compounds |  |  |
